Experimental data from US20240368163A1, “COMPOUNDS AND METHODS FOR MODULATING SPLICING” (REMIX THERAPEUTICS INC., priority 2021, published 2024).

Tests used:
Format in all cases: cell-based, human
HTT [1] = test: Splicing RT-qPCR assay, HTT mRNA canonical junction (CJ) and alternative junction (AJ); conditions: Homo sapiens; for AC50: increase in AJ mRNA
Method in brief: (§1)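 A673 or K562 cells were treated 24 h at 37 °C with an 11-point 3-fold dilution series (top 10 uM final, DMSO ≤0.25%). Lysates underwent one-step RT-qPCR for canonical (CJ) and alternative (AJ) junctions; Ct normalized to GAPDH, GUSB or PPIA and DMSO control via 2^(−ΔΔCt), expressed as percentage response.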

MYB [2] = test: Splicing RT-qPCR assay, MYB mRNA canonical junction (CJ) and alternative junction (AJ); conditions: Homo sapiens; for AC50: increase in AJ mRNA
Method in brief: as §1

SMN2 = test: Splicing RT-qPCR panel, SMN2 canonical junction (CJ) mRNA; conditions: Homo sapiens, RT-qPCR panel, canonical junction mRNA; compound concentration having 50% response in CJ decrease; read-out: SMN2 IC50 (decrease in CJ mRNA levels)
Method in brief: as §1

Target C [3] = test: Splicing RT-qPCR panel, Target C canonical junction (CJ) mRNA; conditions: Homo sapiens, RT-qPCR panel, canonical junction mRNA; compound concentration having 50% response in CJ decrease; read-out: Target C IC50 (decrease in CJ mRNA levels)
Method in brief: as §1

MYB [4] = test: HiBiT protein abundance assay, MYB; conditions: Homo sapiens, K562, 24 h, Table 13A, modified K562 cells
Method in brief: (§2)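 Protein abundance measured by Nano-Glo HiBiT lytic luminescence after 24 h compound exposure of modified K562 lines, 10000 cells/well, top final dose 10 μM in 3-fold steps. Four-parameter fit of control-normalised response gives concentration reducing abundance to 50% of untreated.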

HTT [5] = test: HiBiT protein abundance assay, HTT; conditions: Homo sapiens, K562, 24 h, Table 13A, modified K562 cells
Method in brief: as §2

Target C [6] = test: HiBiT protein abundance assay, Target C; conditions: Homo sapiens, K562, 24 h, Table 13A, modified K562 cells
Method in brief: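 Target protein levels in engineered HiBiT-tagged cells were read by lytic luminescence after 24 h compound exposure (10000 cells/well, 10 μM top final, 3-fold steps, ≤0.25% DMSO). Unmodified K562 served as baseline; four-parameter regression gave concentration reducing abundance to 50%.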

[7] = 24 h, decrease in CJ mRNA, A673 or K562 cells, 24 hours treatment, RT-qPCR, read-out: HTT CJ IC50
[8] = 24 h, A673 or K562 cells, 24 hours treatment, RT-qPCR
[9] = RT-qPCR panel, canonical junction mRNA, compound concentration having 50% response in CJ decrease, read-out: HTT IC50 (decrease in CJ mRNA levels)
[10] = 24 h, decrease in CJ mRNA, A673 or K562 cells, 24 hours treatment, RT-qPCR, read-out: MYB CJ IC50
[11] = RT-qPCR panel, canonical junction mRNA, compound concentration having 50% response in CJ decrease, read-out: MYB IC50 (decrease in CJ mRNA levels)

COc1cc(-c2ccc(-c3ccc(N(C)C4CC(C)(C)NC(C)(C)C4)nn3)c3ncsc23)ccn1 [Compound 177]
IC50 (HTT [1]; [7]): > 10 µM
AC50 (HTT [1]; [8]): > 10 µM
IC50 (HTT [1]; [9]): > 10 µM
IC50 (MYB [2]; [10]): 1 to 10 µM
AC50 (MYB [2]; [8]): > 10 µM
IC50 (MYB [2]; [11]): 1 to 10 µM
IC50 (SMN2): 1 to 10 µM
IC50 (Target C [3]): > 10 µM
IC50 (MYB [4]): 1 to 10 µM
IC50 (HTT [5]): 1 to 10 µM
IC50 (Target C [6]): 1 to 10 µM

CN(c1ccc(-c2ccc(-c3cnc(=O)[nH]c3)c3scnc23)nn1)C1CC(C)(C)NC(C)(C)C1 [Compound 179]
IC50 (HTT [1]; [7]): 0.1 to 1 µM
AC50 (HTT [1]; [8]): 0.1 to 1 µM
IC50 (HTT [1]; [9]): 0.1 to 1 µM
IC50 (MYB [2]; [10]): 0.1 to 1 µM
AC50 (MYB [2]; [8]): 0.1 to 1 µM
IC50 (MYB [2]; [11]): 0.1 to 1 µM
IC50 (SMN2): 0.1 to 1 µM
IC50 (Target C [3]): 0.1 to 1 µM
IC50 (MYB [4]): 0.1 to 1 µM
IC50 (HTT [5]): 0.1 to 1 µM
IC50 (Target C [6]): 0.1 to 1 µM

CN(c1ccc(-c2ccc(-c3ccc(=O)[nH]c3)c3scnc23)nn1)C1CC(C)(C)NC(C)(C)C1 [Compound 180]
IC50 (HTT [1]; [7]): 0.1 to 1 µM
AC50 (HTT [1]; [8]): 0.1 to 1 µM
IC50 (HTT [1]; [9]): 0.1 to 1 µM
IC50 (MYB [2]; [10]): 0.1 to 1 µM
AC50 (MYB [2]; [8]): 0.1 to 1 µM
IC50 (MYB [2]; [11]): 0.1 to 1 µM
IC50 (SMN2): 0.1 to 1 µM
IC50 (Target C [3]): 0.1 to 1 µM
IC50 (MYB [4]): 0.1 to 1 µM
IC50 (HTT [5]): 0.1 to 1 µM
IC50 (Target C [6]): 0.1 to 1 µM

CC1(C)CC(Oc2ccc(-c3ccc(-c4cn[nH]c4)c4ncsc34)nn2)CC(C)(C)N1 [Compound 181]
IC50 (HTT [1]; [7]): > 10 µM
AC50 (HTT [1]; [8]): > 10 µM
IC50 (HTT [1]; [9]): > 10 µM
IC50 (MYB [2]; [10]): > 10 µM
AC50 (MYB [2]; [8]): > 10 µM
IC50 (MYB [2]; [11]): > 10 µM
IC50 (SMN2): < 0.1 µM
IC50 (Target C [3]): > 10 µM
IC50 (MYB [4]): < 0.1 µM
IC50 (HTT [5]): < 0.1 µM
IC50 (Target C [6]): < 0.1 µM

c1nc2c(-c3cn[nH]c3)ccc(-c3ccc(N4CCNCC4)nn3)c2s1 [Compound 185]
IC50 (HTT [1]; [7]): > 10 µM
AC50 (HTT [1]; [8]): 1 to 10 µM
IC50 (HTT [1]; [9]): > 10 µM
IC50 (MYB [2]; [10]): 1 to 10 µM
AC50 (MYB [2]; [8]): > 10 µM
IC50 (MYB [2]; [11]): 1 to 10 µM
IC50 (SMN2): 0.1 to 1 µM
IC50 (Target C [3]): > 10 µM
IC50 (MYB [4]): 1 to 10 µM
IC50 (HTT [5]): 1 to 10 µM
IC50 (Target C [6]): 1 to 10 µM

c1nc2c(-c3cn[nH]c3)ccc(-c3ccc(N4CC5(CCCNC5)C4)nn3)c2s1 [Compound 187]
IC50 (HTT [1]; [7]): > 10 µM
AC50 (HTT [1]; [8]): > 10 µM
IC50 (HTT [1]; [9]): > 10 µM
IC50 (MYB [2]; [10]): > 10 µM
AC50 (MYB [2]; [8]): > 10 µM
IC50 (MYB [2]; [11]): > 10 µM
IC50 (SMN2): 1 to 10 µM
IC50 (Target C [3]): > 10 µM
IC50 (MYB [4]): 1 to 10 µM
IC50 (HTT [5]): 1 to 10 µM
IC50 (Target C [6]): > 10 µM

c1nc2c(-c3cn[nH]c3)ccc(-c3ccc(N4CCC5(CC4)CNC5)nn3)c2s1 [Compound 188]
IC50 (HTT [1]; [7]): > 10 µM
AC50 (HTT [1]; [8]): > 10 µM
IC50 (HTT [1]; [9]): > 10 µM
IC50 (MYB [2]; [10]): > 10 µM
AC50 (MYB [2]; [8]): > 10 µM
IC50 (MYB [2]; [11]): > 10 µM
IC50 (SMN2): > 10 µM
IC50 (Target C [3]): > 10 µM
IC50 (MYB [4]): > 10 µM
IC50 (HTT [5]): > 10 µM
IC50 (Target C [6]): > 10 µM

c1nc2c(-c3cn[nH]c3)ccc(-c3ccc(N4CCCC5(CNC5)C4)nn3)c2s1 [Compound 189]
IC50 (HTT [1]; [7]): > 10 µM
AC50 (HTT [1]; [8]): > 10 µM
IC50 (HTT [1]; [9]): > 10 µM
IC50 (MYB [2]; [10]): > 10 µM
AC50 (MYB [2]; [8]): > 10 µM
IC50 (MYB [2]; [11]): > 10 µM
IC50 (SMN2): > 10 µM
IC50 (Target C [3]): > 10 µM
IC50 (MYB [4]): > 10 µM
IC50 (HTT [5]): > 10 µM
IC50 (Target C [6]): > 10 µM

c1nc2c(-c3cn[nH]c3)ccc(-c3ccc(N4CCC5(CCNCC5)C4)nn3)c2s1 [Compound 190]
IC50 (HTT [1]; [7]): > 10 µM
AC50 (HTT [1]; [8]): > 10 µM
IC50 (HTT [1]; [9]): > 10 µM
IC50 (MYB [2]; [10]): > 10 µM
AC50 (MYB [2]; [8]): > 10 µM
IC50 (MYB [2]; [11]): > 10 µM
IC50 (SMN2): > 10 µM
IC50 (Target C [3]): > 10 µM
IC50 (MYB [4]): > 10 µM
IC50 (HTT [5]): > 10 µM
IC50 (Target C [6]): > 10 µM

c1nc2c(-c3cn[nH]c3)ccc(-c3ccc(N4CCC5(CCCNC5)C4)nn3)c2s1 (stereo not shown) [Compound 191]
IC50 (HTT [1]; [7]): > 10 µM
AC50 (HTT [1]; [8]): > 10 µM
IC50 (HTT [1]; [9]): > 10 µM
IC50 (MYB [2]; [10]): > 10 µM
AC50 (MYB [2]; [8]): > 10 µM
IC50 (MYB [2]; [11]): > 10 µM
IC50 (SMN2): 1 to 10 µM
IC50 (Target C [3]): > 10 µM
IC50 (MYB [4]): 1 to 10 µM
IC50 (HTT [5]): 1 to 10 µM
IC50 (Target C [6]): > 10 µM

c1nc2c(-c3cn[nH]c3)ccc(-c3ccc(N4CCC5(CCNC5)CC4)nn3)c2s1 [Compound 192]
IC50 (HTT [1]; [7]): > 10 µM
AC50 (HTT [1]; [8]): > 10 µM
IC50 (HTT [1]; [9]): > 10 µM
IC50 (MYB [2]; [10]): > 10 µM
AC50 (MYB [2]; [8]): > 10 µM
IC50 (MYB [2]; [11]): > 10 µM
IC50 (SMN2): > 10 µM
IC50 (Target C [3]): > 10 µM
IC50 (MYB [4]): > 10 µM
IC50 (HTT [5]): > 10 µM
IC50 (Target C [6]): > 10 µM

c1nc2c(-c3cn[nH]c3)ccc(-c3ccc(N4CCCC5(CCNC5)C4)nn3)c2s1 (stereo not shown) [Compound 193]
IC50 (HTT [1]; [7]): > 10 µM
AC50 (HTT [1]; [8]): > 10 µM
IC50 (HTT [1]; [9]): > 10 µM
IC50 (MYB [2]; [10]): > 10 µM
AC50 (MYB [2]; [8]): > 10 µM
IC50 (MYB [2]; [11]): > 10 µM
IC50 (SMN2): > 10 µM
IC50 (Target C [3]): > 10 µM
IC50 (MYB [4]): 1 to 10 µM
IC50 (HTT [5]): > 10 µM
IC50 (Target C [6]): > 10 µM

c1nc2c(-c3cn[nH]c3)ccc(-c3ccc(NC4CNC4)nn3)c2s1 [Compound 196]
IC50 (HTT [1]; [7]): > 10 µM
AC50 (HTT [1]; [8]): > 10 µM
IC50 (HTT [1]; [9]): > 10 µM
IC50 (MYB [2]; [10]): > 10 µM
AC50 (MYB [2]; [8]): > 10 µM
IC50 (MYB [2]; [11]): > 10 µM
IC50 (SMN2): > 10 µM
IC50 (Target C [3]): > 10 µM
IC50 (MYB [4]): > 10 µM
IC50 (HTT [5]): > 10 µM
IC50 (Target C [6]): > 10 µM

c1nc2c(-c3cn[nH]c3)ccc(-c3ccc(N4CC5(CCNCC5)C4)nn3)c2s1 [Compound 197]
IC50 (HTT [1]; [7]): 1 to 10 µM
AC50 (HTT [1]; [8]): 1 to 10 µM
IC50 (HTT [1]; [9]): 1 to 10 µM
IC50 (MYB [2]; [10]): > 10 µM
AC50 (MYB [2]; [8]): > 10 µM
IC50 (MYB [2]; [11]): > 10 µM
IC50 (SMN2): 1 to 10 µM
IC50 (Target C [3]): > 10 µM
IC50 (MYB [4]): 1 to 10 µM
IC50 (HTT [5]): 1 to 10 µM
IC50 (Target C [6]): 1 to 10 µM
